T1: Asialofetuin (UniProt P12763 19-359, desialylated glycans with terminal Gal-beta-1,4-GlcNAc)
T1 sequence (looked up): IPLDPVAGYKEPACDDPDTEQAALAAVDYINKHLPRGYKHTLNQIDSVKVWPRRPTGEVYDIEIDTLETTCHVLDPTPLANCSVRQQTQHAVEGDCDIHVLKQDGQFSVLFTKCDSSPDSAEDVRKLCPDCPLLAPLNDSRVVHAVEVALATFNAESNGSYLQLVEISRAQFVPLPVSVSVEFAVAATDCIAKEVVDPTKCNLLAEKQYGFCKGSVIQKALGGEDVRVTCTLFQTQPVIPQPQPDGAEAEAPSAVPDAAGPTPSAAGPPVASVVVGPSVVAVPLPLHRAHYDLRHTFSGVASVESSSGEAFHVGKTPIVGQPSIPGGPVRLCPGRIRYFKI

T2: alpha-Galactosidase-digested alpha2-macroglobulin glycoprotein (from volunteer 4) (human, UniProt P01023 24-1474, terminal alpha-galactose removed with alpha-galactosidase)
T2 construct: mature; also called alpha-Galactosidase-digested glycoprotein from volunteer 4; treated fractions containing principally alpha2-macroglobulin
T2 sequence (looked up): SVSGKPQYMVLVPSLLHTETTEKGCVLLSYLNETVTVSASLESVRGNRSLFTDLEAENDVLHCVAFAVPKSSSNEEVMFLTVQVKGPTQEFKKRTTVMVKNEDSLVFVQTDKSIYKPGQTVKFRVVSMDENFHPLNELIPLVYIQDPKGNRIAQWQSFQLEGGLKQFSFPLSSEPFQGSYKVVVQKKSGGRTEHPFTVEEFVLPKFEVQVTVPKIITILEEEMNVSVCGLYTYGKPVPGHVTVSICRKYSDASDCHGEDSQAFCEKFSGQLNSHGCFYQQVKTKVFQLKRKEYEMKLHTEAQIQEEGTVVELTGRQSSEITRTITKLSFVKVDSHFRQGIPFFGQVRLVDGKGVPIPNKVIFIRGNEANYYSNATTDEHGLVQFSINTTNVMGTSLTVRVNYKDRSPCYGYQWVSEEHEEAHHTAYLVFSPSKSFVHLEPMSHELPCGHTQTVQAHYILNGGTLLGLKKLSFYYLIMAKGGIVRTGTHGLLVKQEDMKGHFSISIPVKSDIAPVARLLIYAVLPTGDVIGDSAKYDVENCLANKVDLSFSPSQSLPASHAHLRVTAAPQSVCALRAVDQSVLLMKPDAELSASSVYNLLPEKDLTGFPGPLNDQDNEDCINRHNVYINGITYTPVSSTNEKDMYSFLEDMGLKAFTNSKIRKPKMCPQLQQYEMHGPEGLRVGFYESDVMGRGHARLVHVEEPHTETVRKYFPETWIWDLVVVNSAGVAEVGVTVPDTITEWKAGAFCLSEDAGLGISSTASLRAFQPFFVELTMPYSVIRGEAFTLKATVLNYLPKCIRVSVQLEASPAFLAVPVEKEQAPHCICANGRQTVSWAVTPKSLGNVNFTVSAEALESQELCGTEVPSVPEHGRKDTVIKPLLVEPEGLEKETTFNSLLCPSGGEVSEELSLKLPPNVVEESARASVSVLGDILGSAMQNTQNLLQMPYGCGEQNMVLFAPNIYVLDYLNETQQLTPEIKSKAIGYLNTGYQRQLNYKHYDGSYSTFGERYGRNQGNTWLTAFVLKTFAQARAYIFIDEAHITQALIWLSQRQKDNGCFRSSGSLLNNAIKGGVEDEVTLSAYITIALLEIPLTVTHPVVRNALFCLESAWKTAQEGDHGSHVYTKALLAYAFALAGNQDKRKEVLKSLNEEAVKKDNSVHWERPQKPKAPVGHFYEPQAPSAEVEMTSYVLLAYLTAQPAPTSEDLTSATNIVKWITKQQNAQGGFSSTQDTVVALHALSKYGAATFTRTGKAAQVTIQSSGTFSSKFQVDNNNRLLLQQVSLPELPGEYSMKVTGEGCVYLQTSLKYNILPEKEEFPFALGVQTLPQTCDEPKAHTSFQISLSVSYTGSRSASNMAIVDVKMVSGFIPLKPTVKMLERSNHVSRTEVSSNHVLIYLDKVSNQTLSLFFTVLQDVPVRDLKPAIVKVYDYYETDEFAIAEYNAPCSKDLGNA

B1: Intact native Marasmius oreades agglutinin (MOA) prepared by the method of Example 2 (other)
chain: MSLRRGIYHIENAGVPSAIDLKDGSSSDGTPIVGWQFTPDTINWHQLWLAEPIPNVADTFTLCNLFSGTYMDLYNGSSEAGTAVNGWQGTAFTTNPHQLWTIKKSSDGTSYKIQNYGSKTFVDLVNGDSSDGAKIAGWTGTWDEGNPHQKWYFNRMSVSSAEAQAAIARNPHIHGTYRGYILDGEYLVLPNATFTQIWKDSGLPGSKWREQIYDCDDFAIAMKAAVGKWGADSWKANGFAIFCGVMLGVNKAGDAAHAYNFTLTKDHADIVFFEPQNGGYLNDIGYDSYMAFY
modifications: blocked N-terminus (possibly N-acetyl)
notes: also called native MOA; immobilized MOA
B2: Recombinant MOA: MOA expressed in E. coli from a pT7 vector and affinity purified (protein)
chain: B1 chain
B3: Lotus lectin (other, UniProt P19664 1-240, looked up)
chain: VSFNYTEFKDDGSLILQGDAKIWTDGRLAMPTDPLVNNPKTTRSAGRALYATPVPIWDSATGNVASFVTSFNFLFVIRELKYTPTDGLVFFLAPVGTEIPSGSTGGFLGIFDGSNGFNQFVAVEFDSYHNIWDPKSLRSSHVGIDVNSIMSLKAVNWNRVSGSLEKATIIYDSQTNILSVVMTSQNGQITTIYGTIDLKTVLPEKVSVGFSATTGNPEREKHDIYSWSFTSTLKEPEEQA
B4: Ulex europaeus I lectin (other, UniProt P22972 1-243, looked up)
chain: SDDLSFKFKNFSQNGKDLSFQGDASVIETGVLQLNKVGNNLPDETGGIARYIAPIHIWNCNTGEVASFITSFSFFMETSANPKAATDGLTFFLAPPDSPLRRAGGYFGLFEDTKDNDSSYQTVAVEFDTIGSPVNFDDPGFPHIGIDVNRVKSINAERWNKRYGLNNVANVEIIYEASSKTLTASLTYPSDQTSISVTSIVDLKEILPEWVSVGFSGGTYIGRQATHEVLNWYFTSNLINTNS
notes: also called Ulex I

Tests used:
MOA = experiment: Quantitative precipitation assay with MOA; type: binding, Marasmius oreades; conditions: 20 μg MOA, PBS pH 7.2, 48 hr at 4° C.
Experimental: In other embodiments, blood group specificity of MOA is determined by quantitative precipitation assays. Quantitative microprecipitation assays with soluble cyst blood group substances and inhibition of precipitation by sugar haptens were performed as described in Mo et al., [J. Biol. Chem. 275:10623 (2000)].
For quantitative precipitation assays, 20 μg of MOA and increasing amounts of glycoprotein or polysaccharide were used in a total volume of 120 to 200 μL, all in PBS/0.15 M NaCl. Quantitative carbohydrate hapten inhibition assays were conducted by adding increasing amounts of haptens to a mixture of MOA (20 μg) and type B blood group substance (5.0 μg). The reactions were incubated at 37° C. for an hour and then at 4° C. for 48 hours followed by centrifugation of the precipitates, washing, and determination of protein by the Lowry method [Lowry, O. H. et al., J. Biol. Chem. 193, 265-275 (1951)].
Varying amounts of blood group substances from 0 to 200 μg were incubated with 20 μg of MOA in a total volume of 150 μl of PBS (pH 7.2). After 48 hr at 4° C., the amounts of protein precipitated were quantified as described above. Solid squares indicate group A substance, solid circles indicate group B substance, and solid triangles indicate group O substance.
Various amounts of glycoconjugates, ranging from 0 to 100 μg were incubated with 20 μg of lectin in a total volume of 150 μl of PBS (pH 7.2). After 48 hr at 4° C., the amounts of protein precipitated were quantified, as described above. Solid circles indicate MOA interaction with laminin, solid crosses indicate MOA interaction with bovine thyroglobulin, solid squares indicate MOA interaction with C. alata galactomannan, solid triangles indicate MOA interaction with pigeon ovalbumin, open circles indicate MOA interaction with Ga1NAcα1,3Ga1β-polyacrylamide, open squares indicate GS I-B4 interaction with pigeon ovalbumin and closed inverted triangles indicate GS I-B4 interaction with Ga1NAcα1,3Ga1β-polyacrylamide.

immobilized MOA = experiment: Binding to MOA-Sepharose 4B affinity column; design: species or system Marasmius oreades; conditions: washed with PBS, eluted with 20 mM diaminopropane
Excerpt: Further insight into the carbohydrate specificity of MOA was obtained by using immobilized MOA. Immobilization of MOA on a variety of supports is contemplated. In one embodiment, MOA is immobilized on a matrix that can be used in an affinity column (see below). In some embodiments, the matrix comprises Sepharose 4B beads. In some Embodiments, the MOA-conjugated Sepharose 4B beads are packed in a column for binding and affinity isolation and purification studies. Briefly, the MOA-Sepharose column is loaded with glycan, glycoconjugate or serum sample to be tested, then washed with an appropriate buffer (including but not limited to PBS). Bound components are eluted with a suitable elution buffer (including but not limited to 1,3-diaminopropane in NaCl), and the collected fractions are analyzed for the presence of protein or glycan (see Example 6 below). The fractions containing the bound components (eluted as described herein) can be pooled and concentrated.
MOA was immobilized on cyanogen bromide-activated Sepharose 4B as follows. 1.5 g of cyanogen bromide-activated Sepharose 4B was allowed to swell in 100 ml of 1 mM HCl solution for 30 min. The supernatant was removed and the swollen beads (6 ml) were filtered on a sintered funnel, washed several times with 100 ml of 1 mM HCl and finally with 20 ml of 0.1 M sodium bicarbonate buffer, pH 8.3, containing 0.5 M sodium chloride. The beads were quickly transferred to a plastic bottle containing 16.2 mg MOA in the same buffer (10 ml) containing 0.2 M lactose. The plastic bottle was shaken at room temperature for 6 hr and at 4° C. overnight. The beads were filtered on a sintered glass funnel, washed with the coupling buffer, and then shaken in 1 M ethanolamine (12 ml) at room temperature for 2.5 hr to cap all of the unreacted iminocarbonate groups. The beads were filtered, washed alternately with the coupling buffer then sodium acetate buffer (0.1 M, pH 4.0 containing 0.5 M NaCl) four times. A column (1×7 cm) packed with the beads was finally washed with PBS containing 0.04% sodium azide. The beads contained 2.3 mg MOA per ml Sepharose 4B, based on MOA remaining in solution.
In order to assess the binding of various glycans, glycoconjugates and serum samples to MOA-Sepharose, the following general procedure was used. The MOA-Sepharose column was loaded with glycan, glycoconjugate or serum sample (0.6-5 ml) and washed with PBS (15 ml). The bound components were eluted with 20 mM 1,3-diaminopropane in 0.15 M NaCl (15 ml). The fractions collected (1 ml) were neutralized with 1 M phosphoric acid (approximately 16 μl), and analyzed by either absorbance at 280 nm for protein, or by phenol-sulfuric acid assay, as described by Dubois et al. [Anal. Chem. 28: 350 (1956)] for the glycan. The column was finally washed thoroughly with PBS. The fractions containing the bound components were pooled and concentrated by Amicon ultrafiltration (Millipore Corp., Bedford, Mass.) using a membrane (YM10) of 10,000 molecular weight cut-off.

Asialofetuin = target: T1, Asialofetuin; experiment: affinity chromatography on MOA-Sepharose 4B, PBS wash then elution with 20 mM 1,3-diaminopropane in 0.15 M NaCl, A280 of 1 ml fractions
[1] = Solubility and activity of salt-free lyophilisates; type: physicochemical
Experimental: Purification of recombinant MOA and native intact MOA-Recombinant MOA was purified from the soluble fraction by absorption on a column of melibiose-Sepharose and elution by lactose. Further purification was carried out on an affinity column of Synsorb B. Except for the diaminopropane elution, all affinity purifications were carried out in PBS, pH 7.2, containing 1.25 mM EDTA. After purification, lectin solutions were dialyzed against distilled water and lyophilized. […] Intact native MOA was prepared with a purification procedure (Example 2) that utilized a protease inhibitor cocktail (product P8215, Sigma, St. Louis, Mo.) which was added at the level of 0.1 ml/100 ml extract buffer (instead of phenylmethylsulfonyl fluoride), all buffers lacked Ca^++ and contained 1.25 mM EDTA, and the initial extraction and ammonium sulfate fractionations were carried out under an atmosphere of argon.

[2] = target: T2, alpha-Galactosidase-digested …; experiment: agar gel diffusion, precipitin

Row | Molecule | precipitation with MOA (MOA) | binding to MOA-Sepharose column (immobilized MOA) | also measured
1 | Galactomannan | did not precipitate | failed to bind | 
2 | bovine thyroglobulin: bovine thyroglobulin, with Galα1,3Galβ1,4GlcNAc end groups | reacted strongly | bound tightly | 
3 | laminin: Laminin purified from the EHS sarcoma, with Galα1,3Galβ1,4GlcNAc end groups | reacted strongly | bound tightly | 
4 | B1 |  |  | binding result (Asialofetuin): no binding
5 | B2 |  |  | solubility of salt-free lyophilisates ([1]; distilled water or buffer): readily soluble; agglutinating activity after lyophilisation ([1]; redissolved lyophilisates): retention of full agglutinating activity
6 | B3 |  |  | binding result [2]: no binding
7 | B4 |  |  | binding result [2]: binds

Reference: patent US6958321B2, “Isolation, characterization, cloning and use of a mushroom lectin” (The Regents of the University of Michigan, priority 2001, dated 2005)
